# Source: patent publication US4138423A, “N-dithio carbamoyl oximes” (priority 1976, dated 1979)
# Tests used:
# Mexican bean beetle = experiment: Mexican Bean Beetle Leaf Spray Test; details: Epilachna varivestis, read-out: Beetle LD50
# Method: (§1) The test procedures were as follows:
# The closed dishes were labeled and held at a temperature of 80±5° F. for three days. Although the larvae could easily consume the leaf within 24 to 48 hours, no more food was added.
# southern armyworm = experiment: Southern Armyworm Leaf Spray Test; details: Spodoptera eridania, read-out: Armyworm LD50
# Method: The thus-prepared stock suspension contained 0.5 percent by weight of compound. The test concentrations in parts per million by weight employed in the tests described hereinbelow were obtained by appropriate dilutions of the stock suspension with water. The test procedures were as follows:
# Larvae of the southern armyworm (Prodenia eridania, (Cram.)), reared on Tendergreen bean plants at a temperature of 80±5° F. and a relative humidity of 50±5 percent, constituted the test insects.
# Potted Tendergreen bean plants of standard height and age were placed on a revolving turntable and sprayed with 100-110 milliliters of test compound formulation by use of a DeVilbiss spray gun set at 10 psig air pressure. This application, which lasted 25 seconds, was sufficient to wet plants to run-off. As a control, 100-110 milliliters of a water-acetone-emulsifier solution containing no test compound were also sprayed on infested plants. When dry, the paired leaves were separated and each one was placed in a 9 centimeter Petri dish lined with moistened filter paper. Five randomly selected larvae were introduced into each dish and the dishes were closed. The closed dishes were labeled and held at 80-85° F. for three days. Although the larvae could easily consume the whole leaf within twenty-four hours, no more food was added. Larvae which were unable to move the length of the body, even upon stimulation by prodding, were considered dead. Percent mortality was recorded for various concentration levels.
# (§3) The test procedures described above were employed in these experiments in order to determine the LD50 (number of parts per million of active ingredients required to achieve fifty percent mortality of the insects tested) for each of the compositions tested.
# house flies = experiment: Fly Bait Test; details: Musca domestica, read-out: Fly LD50
# Method: The test concentrations in parts per million by weight employed in the tests described hereinbelow were obtained by appropriate dilutions of the stock suspension with water. The test procedures were as follows:
# Four to six day old adult house flies (Musca domestica, L.) reared according to the specifications of the Chemical Specialities Manufacturing Association (Blue Book, McNair-Dorland Co., N.Y. 1954; pages 243-244, 261) under controlled conditions of 80±5° F. and 50±5 percent relative humidity, were the test insects. The flies were immobilized by anesthetizing with carbon dioxide and twenty five immobilized individuals,males and females, were transferred to a cage consisting of a standard food strainer about five inches in diameter which was inverted over a wrapping-paper-covered surface. […] Ten milliliters of the test formulation were added to a souffle cup containing a one-inch square of an absorbent cotton pad. This bait cup was introduced and centered on the blotting paper under the food strainer prior to admitting the anesthetized flies. The caged flies were allowed to feed on the bait for twenty four hours, at a temperature of 80±5° F. and the relative humidity of 50±5 percent.
# as §3
# [1] = peroral toxicity to mammals (rat); details: in vivo, po, peroral, Table I, read-out: A.O. Rat. LD50
# Method: (§2) Certain of these compositions were also evaluated to determine their peroral toxicity to mammals. The animal selected for this experiment was the rat. The test results obtained are expressed in terms of the number of milligrams of compositions per kilogram of weight of the animal required to achieve a mortality rate of 50 percent (LD50).
# bean aphid = experiment: whole plant or invertebrate; details: foliar, read-out: Aphid LD50
# two-spotted mite = experiment: Mite Foliage Spray Test; details: Tetranychus urticae, foliar, read-out: Mite LD50
# Method: as §1
# Adults and nymphal stages of the two-spotted mite (Tetranychus urticae Koch), reared on Tendergreen bean plants at 80±5° percent relative humidity, were the test organisms. Infested leaves from a stock culture were placed on the primary leaves of two bean plants six to eight inches in height, growing in a two- and-a-half inch clay pot. 150-200 mites, a sufficient number for testing, transferred from the excised leaves to the fresh plants in a period of twenty four hours. Following the twenty four hour transfer period, the excised leaves were removed from the infested plants. […] The sprayed plants were held at 80±5 percent relative humidity for six days, after which a mortality count of motile forms was made. […] Any individual which was capable of locomotion upon prodding was considered living.
# [2] = test system: cotton, tomatoes, beans and corn; experiment: phytotoxicity to crops; details: compared with N-methyl carbamate compounds
# rat = experiment: peroral toxicity to mammals (rat); details: in vivo, po
# Method: as §2
compound,measurement,setting,value
"CSC(C)=NOC(=O)N(C)SSC(C)(C)C [Example I, 1-Methylthioacetaldehyde O-[N-methyl-N-(2-methyl-2-propanethiosulfenyl)carbamoyl]oxime]",LC50,Mexican bean beetle,40 µg/mL
same,LC50,southern armyworm,6 µg/mL
same,LC50,house flies,4 µg/mL
same,LD50,[1],143 mg/kg
CSC(C)=NOC(=O)N(C)SSC(C)(C)C [Example II (Table II)],LC50,bean aphid,1.3 µg/mL
same,LC50,two-spotted mite,> 500 µg/mL
"CSC(C)=NOC(=O)N(C)SSC1CCCCC1 [Example II, 1-Methylthioacetaldehyde O-[N-methyl-N-(cyclohexanethiosulfenyl)carbamoyl]oxime]",LD50,[1],101 mg/kg
CC(=NOC(=O)N(C)SSC(C)(C)C)SC(C)C [Example III (Table II)],LC50,bean aphid,9 µg/mL
same,LC50,two-spotted mite,125 µg/mL
"CSC(C)=NOC(=O)N(C)SSc1ccc(Cl)cc1 [Example III, 1-Methylthioacetaldehyde O-[N-methyl-N-(4-chlorophenylthiosulfenyl)carbamoyl]oxime]",LD50,[1],160 mg/kg
CC(=NOC(=O)N(C)SSC(C)C)SCCC#N [IV],LD50,[1],14.1 mg/kg
"CSC(C)=NOC(=O)N(C)SSc1ccccc1 [IX, 1-Methylthioacetaldehyde O-[N-methyl-N-(phenylthiosulfenyl)carbamoyl]oxime]",LD50,[1],143 mg/kg
"CNC(=O)ON=C(C)SC [Methomyl, reference compound]",LC50,Mexican bean beetle,70 µg/mL
same,LC50,southern armyworm,11 µg/mL
same,LC50,house flies,4 µg/mL
same,LC50,two-spotted mite,> 500 µg/mL
same,phytotoxicity to important economic crops,[2],highly susceptible to phytotoxic injury
same,Rat LD50,rat,48 mg/kg
"CSC(C)=NOC(=O)N(C)SSc1ccc(C)cc1 [X, 1-Methylthioacetaldehyde O-[N-methyl-N-(4-methylphenylthiosulfenyl)carbamoyl]oxime]",LD50,[1],63.5 mg/kg
CC(=NOC(=O)N(C)SSC(C)(C)C)SCCC#N [XIII],LD50,[1],10 mg/kg
CC(=NOC(=O)N(C)SSC(C)(C)C)SC(C)C [XII],LC50,Mexican bean beetle,31 µg/mL
same,LC50,southern armyworm,35 µg/mL
same,LC50,house flies,42 µg/mL
same,LD50,[1],30.8 mg/kg
CSC(C)(C)C=NOC(=O)N(C)SSc1ccc(Cl)cc1 [XIV],LD50,[1],2 mg/kg
CSC(C)=NOC(=O)N(C)SSc1ccc(C(C)(C)C)cc1 [XI],LD50,[1],180 mg/kg
CSC(C)=NOC(=O)N(C)SSC(C)C [XV],LD50,[1],113 mg/kg
